Test results: patent US7456197B2, “Pyridinium cationic lipids as gene transfer agents” (The Texas A&M University System, priority 2003, dated 2008)

Key:
[1] = Critical (phase transition) temperature Tc by differential scanning calorimetry; assay type: physicochemical; details: lipids 21 and 25, DSC, heating rate 5° C./minute
Experimental: General. Melting points for the diols and the phase transition temperature Tc for the cationic lipids were determined by differential scanning calorimetry (DSC), using a TA-Instruments Q100 DSC, and a heating rate of 5° C./minute. The IR spectra were recorded on a Nicolet Avatar 360 FTIR spectrophotometer in the range 650-4000 cm^−1 using a ZnSe—attenuated total reflectance (ATR) accessory. The compounds were solved in a small amount of solvent (MeOH for the diols, CHCl3 for the lipids), and the resulted solutions were left to evaporate to dryness on the surface of the ZnSe crystals of the ATR accessory. The NMR spectra were recorded at ≈303 K with a Varian Inova spectrometer equipped with a 5 mm indirect detection probe, operating at 500 MHz for ^1H-NMR and at 125 MHz for ^13C-NMR. Chemical shifts are reported as δ values, using TMS as internal standard for proton spectra and the solvent resonance for carbon spectra. Assignments were made based on signal intensity, selective decoupling, COSY (^1H-^1H) and HETCOR (^1H-^13C) sequences. Elemental analyses were performed by combustion, using a Perkin Elmer 2400 Series II CHNS analyser.
Dioleoylphosphatidylethanolamine (DOPE), cholesterol (CHOL), N-(2,3-dioleoyloxypropyl)-N,N,N-trimethylammonium chloride (DOTAP) were commercial products. The purity of the lipids was checked by thin layer chromatography and also by differential scanning calorimetry (DSC), which was also used for determining the critical temperature Tc. For the preparation of the liposomes a protocol optimized for this type of compounds was adopted as follows. The cationic lipid (with or without helper lipid) was dissolved in chloroform/methanol (2/1, v/v) to reach a final concentration of 1 mM for the charged species. From this stock solution 50 μL were aliquoted in a 1 mL tube and the solvent was evaporated in a SpeedVac evaporator, under vacuum, for 1 h. The dried lipid film was prepared by removing the traces of organic solvent in a dessicator, over Drierite®, under vacuum, overnight. The film was hydrated with 500 μL sterile phosphate buffer saline (PBS) the tube was purged with sterile N2, and vortexed for 1 minute. The liposomes were generated by sonicating the tube in a water bath sonicator for 5-30 minutes at 62° C. and at 37° C. for DOTAP. After sonication the preparations were allowed to reach room temperature.
Materials and Methods. Melting points for the diols, acetates and ketals were determined on a Boetius heating plate microscope and are uncorrected. For the cationic lipids 21 and 25 the phase transition temperature Tc was determined by differential scanning calorimetry (DSC), using a TA-Instruments Q100 DSC, and a heating rate of 5° C./minute. The IR spectra were recorded on a Nicolet Avatar 360 FTIR spectrophotometer, in the range 650-4000 cm^−1, using a ZnSe—attenuated total reflectance (ATR) accessory. The compounds were solved in a small amount of solvent (MeOH for the diols, CHCl3 for the esters), the resulted solutions being left to evaporate to dryness on the surface of the ZnSe crystals of the ATR accessory. This technique was imposed by the poor results obtained in transmission mode for some of the compounds, due to the lack of crystallization, hygroscopicity and other problems related with working with KBr pellets. The NMR spectra were recorded at ≈303 K with a Varian Gemini 300BB spectrometer operating at 300 MHz for ^1H and at 75 MHz for ^13C. Chemical shifts are reported as δ values, using TMS as internal standard for proton spectra and the solvent resonance for carbon spectra: 77.00 ppm in CDCl3, 39.50 ppm in DMSO-d6, the line from 123.50 ppm in pyridine-d5, 62.80 ppm in nitromethane-d3, 30.10 ppm in dimethylformamide-d7. Assignments were made based on signal intensity, selective decoupling and COSY (^1H-^1H) and HETCOR (^1H-^13C) sequences. Nitrogen elemental analysis was performed by combustion, mixing the samples with small amounts of quartz sand.

[2] = test system: HeLa cells (human carcinoma cell line ATCC No. CCL-2); assay: Luciferase (pGL3-Control) transfection efficiency, HeLa cells; assay type: cell-based; details: no helper lipid, DOTAP as reference
Experimental: Transfection experiments were carried out in vitro on HeLa cells (human carcinoma cell line ATCC No. CCL-2), using a pGL3-Control plasmid (Promega, Madison, Wisc.), which encodes the firefly luciferase reporter. The structurally related and commercially available DOTAP (2) mentioned earlier was chosen as reference.
HeLa cell line was obtained from ATCC, MD. The plasmid pGL3-control, encoding a firefly luciferase reporter was from Promega (Madison, Wisc.). As transfection reference we used N-[1-(2,3-dioleoyloxy)propyl]-N,N,N-trimethylammonium methylsulfate (DOTAP), obtained from Roche Molecular Biochemicals (Indianapolis, Ind.). The BCA protein assay kit was from Pierce (Rockford, Ill.).
All of the pyridinium cationic lipids, along with the DOTAP reference, were tested in triplicate in two independent assays. The pyridinium cationic lipids containing tetrafluoroborate (BF4^−) or perchlorate (ClO4^−) anion were dissolved in ethanol/chloroform. The lipid solution was evaporated to dryness using a Speedvac rotary evaporating device, under vacuum. Traces of solvents were removed from the lipid film by keeping the vials under vacuum for another 3 hours. Ultrapure water was added to the dry lipid film, so that a final 1 μg/μL concentration could be reached, and the lipid film was allowed to hydrate overnight. […]

## CCCCCCCCCCCCCCCC(=O)OCC(COC(=O)CCCCCCCCCCCCCCC)[n+]1c(C)cc(C)cc1C.F[B-](F)(F)F [Lipid 25AbP, 1-(1,3-Dipamitoyloxypropane-2-yl)-2,4,6-trimethylpyridinium tetrafluoroborate]
[1]
  Tc (phase transition temperature): 70 °C
[2]
  transfection efficiency (in words): comparable with that of DOTAP
